We go through six compounds from PMC9927463, “Identification and Characterization of Corynaridin, a Novel Linaridin from Corynebacterium lactis” (Microbiology Spectrum, 2022).

Bounds are passed on as bounds.

One data set deals with Micrococcus luteus. Conditions: cited from earlier work. An excerpt:
(§1) While extensive studies have been carried out on the structure and chemistry behind their modifications, comparably little is known about the biological functions of linaridins. […] So far, for none of the hitherto described linaridins receptors or mode of action have been prop ...

Data set [1] has as its system Corynebacterium glutamicum ATCC 13032. In words: spot-on-lawn assay. The data set is classed as cell-based. Set-up: key to Activity, RPC fraction: +: zone of inhibition; (+): diffuse zone of inhibition; −: no zone of inhibition. The procedure: (§2) Antimicrobial activity was determined using a spot-on-lawn assay. Overnight cultures of the respective strains were inoculated with an OD600 of 0.01 into hand-warmed agar medium (16 g/L agar) and poured into sterile petri dishes. After solidification, surfaces of agar plates were air dried at room temperature under a sterile hood. Supernatants and purification fractions were serially diluted and spotted onto agar plates. Plates were incubated under the preferred conditions of the embedded bacteria until growth was visible. Volumetric bacteriocin activity (bacteriocin units [BU] per milliliter) was determined by dividing the last dilution factor resulting in a visible zone of inhibition by the volume spotted.

The test system of data set [2] is Cutibacterium acnes DSM 16379. Briefly: spot-on-lawn assay. Details: key to Activity, RPC fraction: +: zone of inhibition; (+): diffuse zone of inhibition; −: no zone of inhibition. The data set is classed as cell-based. The procedure: as §2
The test system of another data set is Listeria innocua LMG2785. Briefly: spot-on-lawn assay. Details: key to Activity, RPC fraction: +: zone of inhibition; (+): diffuse zone of inhibition; −: no zone of inhibition. The class given is cell-based. The procedure: as §2
The subject of data set [3] is Bacillus subtilis DSM 402. In words: spot-on-lawn assay. The data set is classed as cell-based. Details: key: +: zone of inhibition; (+): diffuse zone of inhibition; −: no zone of inhibition. Conditions: ten-microliter RPC fraction. The procedure: as §2
The test system of data set [4] is Corynebacterium ammoniagenes DSM 20306. Briefly: spot-on-lawn assay. The data set is classed as cell-based. Set-up: key: +: zone of inhibition; (+): diffuse zone of inhibition; −: no zone of inhibition. Conditions: ten-microliter RPC fraction. The procedure: as §2
For data set [5], the system named is Corynebacterium amycolatum DSM 6922. Briefly: spot-on-lawn assay. The data set is classed as cell-based. Details: key: +: zone of inhibition; (+): diffuse zone of inhibition; −: no zone of inhibition. Conditions: ten-microliter RPC fraction. The procedure: as §2
Data set [6] concerns Corynebacterium casei DSM 44701. Briefly: spot-on-lawn assay. The data set is classed as cell-based. Conditions: ten-microliter RPC fraction. Set-up: key: +: zone of inhibition; (+): diffuse zone of inhibition; −: no zone of inhibition. The procedure:
as §2

Data set [7] deals with Corynebacterium efficiens DSM 44549. In words: spot-on-lawn assay. The data set is classed as cell-based. Details: key: +: zone of inhibition; (+): diffuse zone of inhibition; −: no zone of inhibition. Conditions: ten-microliter RPC fraction. The procedure:
as §2

For data set [8], the system named is Corynebacterium lipophiloflavum DSM 44291. In words: spot-on-lawn assay. The data set is classed as cell-based. Details: key: +: zone of inhibition; (+): diffuse zone of inhibition; −: no zone of inhibition. Conditions: ten-microliter RPC fraction. The procedure: as §2
Data set [9] has as its system Corynebacterium striatum DSM 20668. Briefly: spot-on-lawn assay. The class given is cell-based. Details: key: +: zone of inhibition; (+): diffuse zone of inhibition; −: no zone of inhibition. Conditions: ten-microliter RPC fraction. The procedure: as §2
The subject of data set [10] is Corynebacterium xerosis DSM 20743. Briefly: spot-on-lawn assay. The class given is cell-based. Conditions: ten-microliter RPC fraction. Details: key: +: zone of inhibition; (+): diffuse zone of inhibition; −: no zone of inhibition. The procedure:
as §2

Data set [11] has as its system Escherichia coli K-12 MG1655. In words: spot-on-lawn assay. The class given is cell-based. Set-up: key: +: zone of inhibition; (+): diffuse zone of inhibition; −: no zone of inhibition. Conditions: ten-microliter RPC fraction. The procedure:
as §2

The test system of data set [12] is Lactobacillus plantarum DSM 1055. In words: spot-on-lawn assay. The data set is classed as cell-based. Details: key: +: zone of inhibition; (+): diffuse zone of inhibition; −: no zone of inhibition. Conditions: ten-microliter RPC fraction. The procedure: as §2
For data set [13], the system named is Lactococcus lactis IL1403. In words: spot-on-lawn assay. The class given is cell-based. Details: key: +: zone of inhibition; (+): diffuse zone of inhibition; −: no zone of inhibition. Conditions: ten-microliter RPC fraction. The procedure:
as §2

The test system of data set [14] is Listeria monocytogenes EGD-e. In words: spot-on-lawn assay. Conditions: ten-microliter RPC fraction. The data set is classed as cell-based. Details: key: +: zone of inhibition; (+): diffuse zone of inhibition; −: no zone of inhibition. The procedure: as §2
In data set [15] the test system is Micrococcus luteus DSM 20030. In words: spot-on-lawn assay. Details: key: +: zone of inhibition; (+): diffuse zone of inhibition; −: no zone of inhibition. The data set is classed as cell-based. Conditions: ten-microliter RPC fraction. The procedure: as §2
Data set [16] relates to Pediococcus acidilactici 347. Briefly: spot-on-lawn assay. The class given is cell-based. Conditions: ten-microliter RPC fraction. Details: key: +: zone of inhibition; (+): diffuse zone of inhibition; −: no zone of inhibition. The procedure: as §2
Data set [17] has as its system Pseudomonas fluorescens DSM 50090. Briefly: spot-on-lawn assay. Conditions: ten-microliter RPC fraction. The data set is classed as cell-based. Set-up: key: +: zone of inhibition; (+): diffuse zone of inhibition; −: no zone of inhibition. The procedure:
as §2

Data set [18] deals with Staphylococcus aureus ATCC 29213. Briefly: spot-on-lawn assay. The class given is cell-based. Set-up: key: +: zone of inhibition; (+): diffuse zone of inhibition; −: no zone of inhibition. Conditions: ten-microliter RPC fraction. The procedure: as §2
The test system of data set [19] is Staphylococcus epidermidis DSM 3269. In words: spot-on-lawn assay. The class given is cell-based. Details: key: +: zone of inhibition; (+): diffuse zone of inhibition; −: no zone of inhibition. Conditions: ten-microliter RPC fraction. The procedure:
as §2

Data set [20] has as its system C. glutamicum ATCC 13032. Briefly: time-kill kinetics. The class given is cell-based, Corynebacterium glutamicum. The procedure:
Fresh overnight cultures of C. glutamicum ATCC 13032 were used to inoculate 5 mL 2× TY in glass tubes with a starting OD600 of 0.5 (i.e., ~10^7 CFU/mL). Samples of interest were added at the indicated concentrations prior to inoculation of the medium. Cultures were then incubated on a rotary shaker at 130 rpm for 24 h at 30°C. Samples were collected at the indicated time points, diluted (10^−1 to 10^−8), and plated on 2× TY agar. CFU per milliliter were determined after 24 to 48 h of incubation of the plates at 30°C by counting the colonies for the respective dilution.

Data set [21] relates to C. glutamicum ATCC 13032/pPB-pHin2^Cg. In words: pHluorin assay for membrane damage. The class given is cell-based, Corynebacterium glutamicum. Conditions: LMB pH 6.2, 30 min room temperature. The procedure: For detection of membrane damage, a pHluorin assay was conducted as described earlier ([34]). In particular, a 5-mL BHI overnight culture containing kanamycin (50 μg/mL) of the sensor strain C. glutamicum ATCC 13032/pPB-pHin2^Cg was harvested by centrifugation and resuspended to an OD600 of 3 in Listeria minimal buffer [LMB: 100 mM MOPS, 4.82 mM KH2PO4, 11.52 mM Na2HPO4, 1.7 mM MgSO4, 0.6 g/L (NH4)2SO4, 55 mM glucose (pH 6.2)]. Serial 2-fold dilutions of samples were prepared in black 96-well microtiter plates (Sarsted, Nümbrecht, Germany) with a final volume of 100 μL in each well. Subsequently, 100 μL of the sensor strain suspension was added and the plate was incubated at room temperature in the dark for 30 min. Then, pHluorin2 fluorescence was measured at 520 nm with excitation at the distinct maxima at 400 and 480 nm using an infinite M200 plate reader (Tecan, Männedorf, Switzerland).

The test system of data set [22] is C. glutamicum ATCC 13032. In words: fluorescence microscopy of propidium iodide-stained bacteria. The class given is cell-based, Corynebacterium glutamicum. Conditions: 4,000-BU/mL RPC fraction, 10 to 30 min incubation. The procedure: A fresh culture of C. glutamicum ATCC 13032 was washed once in phosphate-buffered saline (PBS), and bacteria were resuspended in saline (0.9% [wt/vol] NaCl) at an OD600 of 1. An 87.5-μL concentration of the cell suspension was mixed with nisin, cetyltrimethylammonium bromide (CTAB), H2O, or the RPC fraction containing corynaridin to the indicated concentrations and incubated for 10 to 30 min in the dark. Then, the bacteria were stained using 12.5 μL propidium iodide (25 μg/mL) (Invitrogen, Darmstadt, Germany) and again incubated for 15 min in the dark. Samples were imaged using a Axio Observer Z1 (Zeiss, Oberkochen, Germany) in bright-field and fluorescence mode with a filter set for propidium iodide (excitation at 575 to 625 nm, emission at 660 to 710 nm). Images were acquired with a 63× lens objective and analyzed using the Zen software (version 2.3 SP1; Zeiss).

Another data set has as its system trypsin. The data set is classed as in vitro ADME. The procedure:
(§3) To assess the physicochemical properties of the purified compound, it was tested for resistance to protease and heat treatment (Fig. 3c and d). While a reduction of activity of the RPC fraction to 8,000 BU/mL (i.e., about 4-fold) was observed after incubation with trypsin or proteinase K, heat treatment at 80°C and 100°C for 10 min had no effect.

For another data set, the target named is proteinase K (Parengyodontium album, UniProt P06873). Briefly: resistance to protease treatment. The class given is in vitro ADME. The procedure: as §3
Data set [23] in a line: resistance to heat treatment. The class given is physicochemical. Conditions: read-out spot-on-lawn, 10-μL sample. The procedure: as §3
In data set [24] the test system is Streptococcus pyogenes strain. Conditions: cited from earlier work.
Source text: as §1

proteinase K, sequence (P06873 106-384): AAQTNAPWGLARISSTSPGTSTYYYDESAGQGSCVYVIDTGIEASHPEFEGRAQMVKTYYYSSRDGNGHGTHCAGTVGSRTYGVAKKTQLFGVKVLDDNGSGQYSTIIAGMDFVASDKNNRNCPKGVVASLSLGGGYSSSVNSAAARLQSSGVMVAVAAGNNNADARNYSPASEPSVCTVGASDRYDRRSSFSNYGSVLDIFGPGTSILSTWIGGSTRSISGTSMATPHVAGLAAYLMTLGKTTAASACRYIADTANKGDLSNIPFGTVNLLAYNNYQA

For cypemycin, the antimicrobial activity entry in the data set with Micrococcus luteus was “limited to Micrococcus luteus”.
Turning to corynaridin, the “volumetric bacteriocin activity of RPC preparation” value in data set [1] (purified from CLI culture supernatant (ammonium sulfate, CIEX, RPC), resuspended in HPLC-grade H2O, BU/mL = last inhibiting dilution factor / volume spotted) was 32,000 BU/mL. The “volumetric bacteriocin activity of RPC sample for LC-MS” value in data set [1] (purified from CLIV minimal medium supernatant (CIEX, RPC), corresponding to 0.5 μg/mL protein) is on record as 40,000 BU/mL. In addition, the “Activity, RPC fraction” value in data set [1] (spot-on-lawn, ten-microliter RPC fraction) is reported as “+”; in data set [2] (ten-microliter RPC fraction), “(+)”; in the data set with Listeria innocua LMG2785 (ten-microliter RPC fraction), “(+)”; in data set [3], “−”; in data set [4], “+”; in [5], “+”. The “Activity, RPC fraction” value is given as “+” in data set [6]; “+” in data set [7]; “+” in data set [8]; “+” in data set [9]; “+” in data set [10]; “−” in data set [11]. Moreover, the “Activity, RPC fraction” value is reported as “−” in data set [12]; “+” in data set [13]; “−” in [14]; “+” in data set [15]; “−” in [16]; “−” in data set [17]. Moreover, the “Activity, RPC fraction” value in data set [18] and in data set [19] was “−” each time. The “concentration of RPC fraction at which low levels of inhibition were achieved” value (in data set [2] (total protein of RPC fraction); with Listeria innocua LMG2785 (total protein of RPC fraction)) was > 1,000 μg/mL each time. Besides, the “CFU/mL after 24 h” value is “slightly increased CFU/mL after 24 h” with C. glutamicum ATCC 13032 [20] (RPC fraction at 400 BU/mL (lower concentration)) and “remained at low levels of CFU/mL” with C. glutamicum ATCC 13032 [20] (RPC fraction at 1,060 BU/mL (high concentration)). Besides, the “decrease of CFU per milliliter after 2 h” value is 4 orders of magnitude with C. glutamicum ATCC 13032 [20] (RPC fraction at 400 BU/mL, 2x TY, 30°C, start ~10^7 CFU/mL) and 4 orders of magnitude in the data set with C. glutamicum ATCC 13032 [20] (RPC fraction at 1,060 BU/mL, 2x TY, 30°C, start ~10^7 CFU/mL). The “change of pHluorin2 fluorescence ratio (excitation 400/480 nm)” value (shortened to “change of pHluorin2 fluorescence ratio”) in [21] (concentrations up to 10,000 BU/mL, at least three biological replicates) is listed as “did not result in a change of fluorescence ratios”. Moreover, the “membrane integrity by propidium iodide staining” value in the data set with C. glutamicum ATCC 13032 [22] is recorded as “no evidence for compromised integrity”. Also, the “reduction of activity after incubation with trypsin” value in the data set with trypsin was “about 4 fold”. Besides, the “reduction of activity after incubation with proteinase K” value at proteinase K (32,000 to 8,000 BU/mL) is listed as “about 4 fold”. In addition, the “activity of the RPC fraction after incubation with proteinase K” value at proteinase K (starting activity 32,000 BU/mL, read-out spot-on-lawn, 10-μL sample, RPC fraction 606 μg/mL total protein) is 8,000 BU/mL. Further, the “effect of heat treatment on activity” value in data set [23] (80°C for 10 min) and in data set [23] (100°C for 10 min) was “no effect” throughout.
As to salinipeptins, the growth inhibition result in data set [24] is on record as “inhibit growth”.
Consider nisin [reference compound], for which, in the data set with C. glutamicum ATCC 13032 [20] (1.25 μg/mL, 2x TY, 30°C, start ~10^7 CFU/mL), the “reduced number of CFU/mL after 2 h” value is over 4 log. For the same compound, the “change of pHluorin2 fluorescence ratio” value in data set [21] (positive controls) was “reduced fluorescence ratios”.
For the compound `O=C(N[C@H](CO)[C@H](O)c1ccc([N+](=O)[O-])cc1)C(Cl)Cl` [chloramphenicol, reference compound], the “CFU per milliliter throughout the experiment” value in the data set on C. glutamicum ATCC 13032 [20] (6.5 μg/mL, 2x TY, 30°C, 24 h) is “stable levels of CFU per milliliter”.
`CCCCCCCCCCCCCCCC[N+](C)(C)C` [CTAB, cetyltrimethylammonium bromide]: in [21] (positive controls), the “change of pHluorin2 fluorescence ratio” value is “reduced fluorescence ratios”.
